Laboratory results: article PMC5736782, “The Differential Absorption of a Series of P-Glycoprotein Substrates in Isolated Perfused Lungs from Mdr1a/1b Genetic Knockout Mice can be Attributed to Distinct Physico-Chemical Properties: an Insight into Predicting Transporter-Mediated, Pulmonary Specific Disposition” (Pharmaceutical Research, 2017)

Assays:
[1] = Immobilised artificial membrane (IAM) chromatography; type: physicochemical; conditions: extrapolated to 100% water; mean of four experiments
Procedure: IAM chromatography provided an experimental measure of substrate membrane affinity and phospholipid interaction. The IAM column (Regis Technologies Inc., Hichrom, Reading, UK; IAM.PC.DD2 10 cm x 4.6 mm ID column) was run under isocratic eluting conditions with the retention of all compounds determined under three mobile phase conditions: 10%, 20% and 30% acetonitrile in water, and from which the theoretical retention time in 100% water was calculated by linear regression. LogK^IAM values were calculated according to Eq. 2:2 LogK^IAM=LogTr−T0/T0
where Tr and T0 are respectively the retention times of the substrate in 100% water and of the unretained compound, i.e. eluting within the solvent front of 75 s in all experiments.

mouse Mdr1a = mouse Mdr1a (Mus musculus, UniProt P21447); assay: Gentest ABC transporter membrane ATPase assay; conditions: 0–300 μM, 30 min, 37°C
P-gp = tested on: P-gp; set-up: method as in PMID 23670704; conditions: IPRL and IPML models; cited from earlier work
mouse Mdr1b = mouse Mdr1b (Mus musculus, UniProt P06795); assay: Gentest ABC transporter membrane ATPase assay; conditions: 0–300 μM, 30 min, 37°C
Excerpt: (§1) The Gentest ATPase assay (Corning, Germany) was used to investigate the binding kinetics of the panel of P-gp substrates against membranes constituted to display human MDR1, mouse Mdr1a, mouse Mdr1b and mouse Bcrp. The assays measure the accumulation of inorganic phosphate (absorbance at 800 nm) produced in the breakdown of ATP to ADP. […] The assays were used in accordance with the manufacturer’s protocol to calculate (GraphPad Prism) the Michaelis-Menten parameters Km and VMAX. For the assay test compounds were serially diluted to produce an assay concentration range of 0–300 μM with the kinetics of ATP turnover examined over 30 min at 37°C.

[2] = tested on: P-glycoprotein (Mdr1a/Mdr1b) in isolated perfused mouse lung; assay: Isolated perfused mouse lung (IPML) airway-to-perfusate absorption, Mdr1a/1b (+/+) vs (−/−); conditions: male, mouse, 50 μM
Procedure: The atria and the lower half of the heart were cut to allow the free flow of perfusate. The lungs were removed and suspended vertically in a custom water-jacketed glass thorax (Radleys, Essex, UK) maintained at 37°C.
Following dosing of compound into the IPML airways serial samples (250 μL) were collected for bioanalysis from the 10 mL recirculating perfusate reservoir. Each sample collected from the reservoir was replaced with an equal volume of fresh warmed, oxygenated perfusate. Upon termination of the experiment the dose solutions, apparatus washings and perfusate samples were collected for mass balance calculations enabling determination of the actual total dose delivered to the lungs.
Radioactive compounds were directly analysed by liquid scintillation counting. Volumes of 50 μL perfusate samples were mixed with 3 mL of Scintisafe 3 Liquid Scintillation Fluid (Fisher, UK) and transferred to vials for scintillation counting using a TriCarb 2900TR (Packard Bioscience, USA).
After accounting for the mass of compound removed at each sample point, plots of the cumulative ‘%deposited dose absorbed’ versus ‘time’ were generated and subject to nonlinear regression analysis according to a first-order absorption one-compartment accumulating model (Eq. 1) to generate estimates for the extent (F) and rate (Ka) of absorption from the IPML airways to the recirculating perfusate.
The data was also subject to standard non-compartmental analysis, specifically Area Under Curve (AUC0–30 min) of ‘%deposited dose absorbed’ versus ‘time’ (units: %Dose.min) and reflecting for the exclusively accumulating perfusate ‘compartment’ the exposure arising from the IPML absorption process alone.

mouse Bcrp = target: T1, mouse Bcrp (Mus musculus, UniProt Q7TMS5); assay: Gentest ABC transporter membrane ATPase assay; type: biochemical; conditions: ATPase; 0 indicates no enzyme turnover
T1 construct: purchased Corning (Gentest), Germany
T1 sequence (Q7TMS5 1-657): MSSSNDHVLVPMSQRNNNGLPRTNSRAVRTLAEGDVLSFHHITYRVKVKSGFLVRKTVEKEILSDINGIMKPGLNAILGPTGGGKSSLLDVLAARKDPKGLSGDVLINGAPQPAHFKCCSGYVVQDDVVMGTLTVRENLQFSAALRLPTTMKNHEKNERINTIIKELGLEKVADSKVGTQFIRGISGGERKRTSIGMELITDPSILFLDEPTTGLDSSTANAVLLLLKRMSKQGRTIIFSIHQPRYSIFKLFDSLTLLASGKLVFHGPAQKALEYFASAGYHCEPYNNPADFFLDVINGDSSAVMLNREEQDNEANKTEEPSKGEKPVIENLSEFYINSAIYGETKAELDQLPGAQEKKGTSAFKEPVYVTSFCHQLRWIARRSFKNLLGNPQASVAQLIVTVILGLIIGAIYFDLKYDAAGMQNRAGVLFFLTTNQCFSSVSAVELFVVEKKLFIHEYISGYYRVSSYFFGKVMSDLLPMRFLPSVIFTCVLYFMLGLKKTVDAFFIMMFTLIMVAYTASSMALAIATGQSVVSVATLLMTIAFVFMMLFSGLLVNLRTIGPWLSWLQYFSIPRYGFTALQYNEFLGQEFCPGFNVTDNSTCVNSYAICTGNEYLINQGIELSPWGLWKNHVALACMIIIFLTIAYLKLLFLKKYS
Excerpt: as §1

[3] = tested on: P-gp (Mdr1a/1b) in mouse intestinal segments; assay: Ussing chamber intestinal permeability, ileal segments Mdr1a/1b (+/+) vs (−/−); conditions: mucosal to serosal, 50 μM, 180 min
Procedure: The bathing fluid for both mucosal and serosal surfaces (3 mL volume in each chamber) comprised oxygenated Krebs-Henseleit buffer maintained at 37°C (heating block) under stirred conditions (gas flow manifold). […] Any intestinal segments presenting an initial TEER of lower than 80 Ω.cm^2 were discarded prior to the experiment, likewise any segments whose TEER decreased by more than 10% over the course of the experiment were excluded.
Thereafter permeability coefficients were determined according to Eq. 4:4 ρ=dM/dt/A^∗C0

human MDR1 (P-gp) = human MDR1 (P-gp) (Homo sapiens, UniProt P08183); assay: Gentest ABC transporter membrane ATPase assay; conditions: human, membranes displaying human MDR1 (Gentest ATPase assay)
human MDR1 = human MDR1 (Homo sapiens, UniProt P08183); assay: Gentest ABC transporter membrane ATPase assay; conditions: ATPase, 0–300 μM, 30 min, 37°C
[4] = Multi-lamellar liposome vesicle (MLV) partitioning; type: physicochemical; conditions: (C0−CS)/C0, 1 μg/mL, 4 h, 37°C, PBS pH 7.4
Procedure: MLVs were formed as previously described ([20]). Briefly, solutions of 8 mg phosphatidylcholine and 2 mg phosphatidylglycerol in 10 mL chloroform were completely dried to a lipid film (rotation under vacuum).
These preparations were then incubated at 37°C for 4 h under shaking conditions to allow equilibration of compound between the lipid and aqueous fractions. The MLVs were then pelleted and 100 μL of supernatant removed for analysis by radiometric or LC-MS/MS methods as described above. Partitioning into the MLVs was determined according to Eq. 3:3 MLVpartitioning=C0−CS/C0
where C0 is the initial compound concentration (1 μg/mL) and CS is the compound concentration present in the aqueous supernatant at the end of 4 h incubation.

Chain of mouse Mdr1b (P06795 whole entry, the tested form may be a part): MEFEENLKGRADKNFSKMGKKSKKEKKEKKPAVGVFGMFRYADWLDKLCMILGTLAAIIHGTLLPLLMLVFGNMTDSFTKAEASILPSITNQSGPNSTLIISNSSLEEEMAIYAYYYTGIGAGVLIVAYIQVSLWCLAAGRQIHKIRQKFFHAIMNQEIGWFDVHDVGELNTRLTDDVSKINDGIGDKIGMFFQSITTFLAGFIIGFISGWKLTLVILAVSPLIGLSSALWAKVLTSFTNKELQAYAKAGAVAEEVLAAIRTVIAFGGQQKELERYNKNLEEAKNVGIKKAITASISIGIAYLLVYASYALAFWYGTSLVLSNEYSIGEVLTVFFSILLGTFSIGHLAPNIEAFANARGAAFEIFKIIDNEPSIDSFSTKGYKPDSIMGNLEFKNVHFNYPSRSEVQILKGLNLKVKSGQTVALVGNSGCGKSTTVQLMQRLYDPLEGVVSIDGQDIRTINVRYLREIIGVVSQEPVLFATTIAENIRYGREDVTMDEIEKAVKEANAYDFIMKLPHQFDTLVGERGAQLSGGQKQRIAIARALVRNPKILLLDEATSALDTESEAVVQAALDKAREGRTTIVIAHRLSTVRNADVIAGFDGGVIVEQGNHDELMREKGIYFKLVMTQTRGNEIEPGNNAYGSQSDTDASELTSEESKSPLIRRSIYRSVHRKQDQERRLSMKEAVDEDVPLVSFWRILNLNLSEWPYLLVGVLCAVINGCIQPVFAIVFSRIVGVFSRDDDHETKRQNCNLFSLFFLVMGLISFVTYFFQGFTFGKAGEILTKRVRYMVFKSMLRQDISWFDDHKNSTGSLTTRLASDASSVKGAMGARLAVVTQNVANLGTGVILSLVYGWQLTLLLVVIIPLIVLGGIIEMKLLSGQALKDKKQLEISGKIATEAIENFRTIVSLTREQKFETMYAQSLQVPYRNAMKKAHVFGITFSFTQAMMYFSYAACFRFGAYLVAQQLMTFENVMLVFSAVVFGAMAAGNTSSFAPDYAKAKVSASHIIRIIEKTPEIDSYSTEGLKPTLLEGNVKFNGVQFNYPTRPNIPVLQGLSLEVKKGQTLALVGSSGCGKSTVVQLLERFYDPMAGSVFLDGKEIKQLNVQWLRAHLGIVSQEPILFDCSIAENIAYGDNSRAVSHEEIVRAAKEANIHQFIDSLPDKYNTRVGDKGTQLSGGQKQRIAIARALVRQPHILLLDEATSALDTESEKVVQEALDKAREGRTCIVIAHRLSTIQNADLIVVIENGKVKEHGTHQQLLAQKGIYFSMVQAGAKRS
Chain of mouse Mdr1a (P21447 whole entry): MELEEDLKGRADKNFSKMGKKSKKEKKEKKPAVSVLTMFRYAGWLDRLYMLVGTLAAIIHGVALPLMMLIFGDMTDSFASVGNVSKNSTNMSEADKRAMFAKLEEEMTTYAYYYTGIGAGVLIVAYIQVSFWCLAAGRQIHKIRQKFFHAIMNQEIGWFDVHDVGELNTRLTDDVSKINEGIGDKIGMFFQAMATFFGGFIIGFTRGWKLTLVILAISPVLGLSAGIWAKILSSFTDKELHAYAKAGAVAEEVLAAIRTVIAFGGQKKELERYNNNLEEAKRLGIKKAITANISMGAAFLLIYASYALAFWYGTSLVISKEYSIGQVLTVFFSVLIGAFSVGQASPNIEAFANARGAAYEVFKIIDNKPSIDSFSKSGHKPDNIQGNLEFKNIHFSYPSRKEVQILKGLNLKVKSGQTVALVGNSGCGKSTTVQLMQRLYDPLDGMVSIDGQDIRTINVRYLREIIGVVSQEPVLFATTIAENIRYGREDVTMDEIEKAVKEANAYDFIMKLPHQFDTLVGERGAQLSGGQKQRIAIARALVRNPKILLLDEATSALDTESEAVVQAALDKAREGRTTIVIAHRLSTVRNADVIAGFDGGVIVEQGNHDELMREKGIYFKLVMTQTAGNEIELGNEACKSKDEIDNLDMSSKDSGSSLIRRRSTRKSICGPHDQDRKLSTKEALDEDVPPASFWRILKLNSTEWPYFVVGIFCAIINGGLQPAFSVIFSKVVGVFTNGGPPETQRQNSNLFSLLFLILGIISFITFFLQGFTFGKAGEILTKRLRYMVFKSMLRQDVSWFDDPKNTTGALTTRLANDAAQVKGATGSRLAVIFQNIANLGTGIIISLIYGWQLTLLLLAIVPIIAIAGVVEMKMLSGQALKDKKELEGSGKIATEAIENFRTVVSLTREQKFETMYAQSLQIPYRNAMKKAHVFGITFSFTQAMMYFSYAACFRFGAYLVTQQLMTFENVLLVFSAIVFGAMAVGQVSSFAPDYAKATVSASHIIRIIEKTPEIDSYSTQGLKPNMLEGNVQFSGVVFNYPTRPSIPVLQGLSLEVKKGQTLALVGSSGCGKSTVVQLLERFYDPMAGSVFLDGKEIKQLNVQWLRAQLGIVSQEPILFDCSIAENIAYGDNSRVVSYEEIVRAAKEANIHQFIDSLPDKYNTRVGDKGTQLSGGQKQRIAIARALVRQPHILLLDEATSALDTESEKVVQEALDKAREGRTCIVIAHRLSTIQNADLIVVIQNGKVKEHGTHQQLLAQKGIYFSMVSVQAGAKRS
Chain of human MDR1 (P-gp) (P08183 whole entry): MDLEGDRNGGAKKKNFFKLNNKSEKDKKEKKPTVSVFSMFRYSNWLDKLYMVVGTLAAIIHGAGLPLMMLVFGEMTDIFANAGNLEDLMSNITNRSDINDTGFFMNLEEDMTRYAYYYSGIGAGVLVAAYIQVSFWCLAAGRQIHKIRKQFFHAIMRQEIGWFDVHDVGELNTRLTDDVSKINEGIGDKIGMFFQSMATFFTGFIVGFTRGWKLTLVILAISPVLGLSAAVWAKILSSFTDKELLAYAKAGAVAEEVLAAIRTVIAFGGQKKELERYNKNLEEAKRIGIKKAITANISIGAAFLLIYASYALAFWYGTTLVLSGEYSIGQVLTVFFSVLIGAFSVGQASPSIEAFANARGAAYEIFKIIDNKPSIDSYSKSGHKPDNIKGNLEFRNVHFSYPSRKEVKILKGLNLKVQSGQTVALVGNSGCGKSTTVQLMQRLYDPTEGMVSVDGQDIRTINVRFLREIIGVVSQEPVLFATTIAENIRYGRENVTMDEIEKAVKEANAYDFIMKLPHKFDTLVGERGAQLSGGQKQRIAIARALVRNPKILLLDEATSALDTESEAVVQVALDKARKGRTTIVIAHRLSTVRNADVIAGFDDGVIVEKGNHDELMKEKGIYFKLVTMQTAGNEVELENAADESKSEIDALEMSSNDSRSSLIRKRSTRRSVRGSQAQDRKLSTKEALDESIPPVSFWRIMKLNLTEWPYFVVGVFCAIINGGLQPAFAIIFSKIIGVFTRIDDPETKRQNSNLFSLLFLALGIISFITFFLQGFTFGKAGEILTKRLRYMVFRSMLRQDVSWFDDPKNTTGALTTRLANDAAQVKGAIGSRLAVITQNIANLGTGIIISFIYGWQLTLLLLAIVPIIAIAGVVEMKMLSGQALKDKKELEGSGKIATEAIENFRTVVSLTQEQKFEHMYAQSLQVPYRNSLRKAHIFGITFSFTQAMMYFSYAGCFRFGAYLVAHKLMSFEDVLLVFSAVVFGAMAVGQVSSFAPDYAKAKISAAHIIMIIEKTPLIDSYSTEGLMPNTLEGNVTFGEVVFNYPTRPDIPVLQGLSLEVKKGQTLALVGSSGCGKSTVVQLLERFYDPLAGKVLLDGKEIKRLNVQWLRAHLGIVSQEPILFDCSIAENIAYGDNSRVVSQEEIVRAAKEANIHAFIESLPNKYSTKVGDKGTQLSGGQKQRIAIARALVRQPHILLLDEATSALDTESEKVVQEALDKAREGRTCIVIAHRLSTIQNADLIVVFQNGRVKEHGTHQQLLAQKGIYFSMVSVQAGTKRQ
Chain of human MDR1 (P08183 whole entry): as above

## CC(C)(C)NC(=O)[C@@H]1C[C@@H]2CCCC[C@@H]2CN1C[C@@H](O)[C@H](Cc1ccccc1)NC(=O)[C@H](CC(N)=O)NC(=O)c1ccc2ccccc2n1 [Saquinavir, saquinavir]
[1]
  LogK^IAM: 1.24
Mouse Mdr1a
  Km: 31.7 µM
  Vmax: 39.5 µM/min
P-gp
  effect of P-gp inhibition (GF120918) upon pulmonary absorption: unaffected
Mouse Mdr1b
  Km: 32 µM
  Vmax: 47.1 µM/min
[2]
  Mdr1a/1b (+/+) ‘F’ estimate by model fit [95% CI): 25.5 [11.4 to 39.6]
  Mdr1a/1b (-/-) ‘F’ estimate by model fit [95% CI): 29.1 [19.5 to 38.6]
[2]; 30 min
  Mdr1a/1b (+/+) % Deposited Dose absorbed: 20.0%
  Mdr1a/1b (-/-) % Deposited Dose absorbed: 20.0%
Mouse Bcrp
  Vmax: 0 µM/min
[3]; P-gp knockout intestinal segments
  Mdr1a/1b (−/−) Permeability coefficient: 15.73 ± 3.52 cm/s (x10^−6)
[3]; wild-type intestinal segments
  Mdr1a/1b (+/+) Permeability coefficient: 1.56 ± 0.69 cm/s (x10^−6)
Human MDR1 (P-gp)
  Km at 30 min: 24.9 µM
Human MDR1
  Vmax: 41.3 µM/min
[4]
  MLV Partitioning: 0.45
